Laboratory results: the supplement of paper PMC13380429

Assays:
[1] = tested on: A549-ACE2 infected with SARS-CoV-2; assay: SARS-CoV-2 infection rate relative to DMSO; higher = more infection; conditions: 24 h
Caco-2 [2] = assay: relative viability EC50 (midpoint between 100% and the lowest measured viability); higher = less toxic; conditions: 72 h
U2OS [3] = assay: as above; conditions: 72 h
Vero E6 [4] = assay: as above; conditions: 72 h
Calu-3 [5] = assay: as above; conditions: 72 h
HepG2 [6] = assay: as above; conditions: 72 h
Caco-2 [7] = assay: cell viability relative to DMSO; higher = less toxic; conditions: 72 h
U2OS [8] = assay: as above; conditions: 72 h
Vero E6 [9] = assay: as above; conditions: 72 h
Calu-3 [10] = assay: as above; conditions: 72 h
HepG2 [11] = assay: as above; conditions: 72 h
[12] = tested on: A549-ACE2 infected with SARS-CoV-2; assay: cell count relative to DMSO; higher = less toxic; conditions: 24 h
[13] = tested on: A549-ACE2 infected with SARS-CoV-2; assay: morphology score (similarity to uninfected cells); higher = more like uninfected cells; conditions: 24 h
A549-ACE2 = assay: drug-induced phospholipidosis relative to tamoxifen; higher = more phospholipidosis
Caco-2 [14] = assay: drug sensitivity score (DSS) for viability; higher = more toxic; extreme values may be limits of the assay; conditions: 72 h
U2OS [15] = assay: as above; conditions: 72 h
Vero E6 [16] = assay: as above; conditions: 72 h
Calu-3 [17] = assay: as above; conditions: 72 h
HepG2 [18] = assay: as above; conditions: 72 h

Cc1[nH]c2ccccc2c1CCNC(=O)c1cccs1 [CK-636]
Conditions | SARS-CoV-2 infection rate, [1] [%] | cell count, [12] [%] | cell viability, Caco-2 [7] [%] | cell viability, Calu-3 [10] [%] | cell viability, HepG2 [11] [%] | cell viability, U2OS [8] [%] | cell viability, Vero E6 [9] [%] | morphology score, [13]
1 nM | – | – | 98.9 | 100 | 99.8 | 94 | 104 | –
10 nM | – | – | 99.8 | 90.9 | 104 | 101 | 100 | –
100 nM | – | – | 91.4 | 91.8 | 102 | 94.9 | 103 | –
0.3 µM | 101 | 98 | – | – | – | – | – | -0.06
1000 nM | – | – | 99.6 | 99.7 | 99.8 | 100 | 97 | –
3 µM | 103 | 99 | – | – | – | – | – | -0.01
10 µM | 100 | 101 | – | – | – | – | – | 0.14
10000 nM | – | – | 84.1 | 93.2 | 104 | 93.2 | 99.3 | –
30 µM | 100 | 97 | – | – | – | – | – | 0.06

Conditions | drug sensitivity score | relative viability EC50 [µM]
Caco-2 [2] | – | > 10
Caco-2 [14] | 0.3 | –
Calu-3 [5] | – | > 10
Calu-3 [17] | 0 | –
HepG2 [6] | – | > 10
HepG2 [18] | 0 | –
U2OS [3] | – | > 10
U2OS [15] | 0 | –
Vero E6 [4] | – | > 10
Vero E6 [16] | 0 | –

drug-induced phospholipidosis [%], A549-ACE2
Conditions | 0.3 µM | 0.833333 µM | 3.33333 µM | 6.66667 µM | 10 µM | 30 µM
24 h | 6.27 | 1.27 | 2.41 | 2.27 | 5.29 | 11.7
48 h | 3.87 | -1.04 | 2.68 | 4.83 | 2.67 | 12.2
72 h | 1.44 | -4.13 | 1.2 | 4.21 | 4.6 | 12.1
